Broadly, the IC50 is the point on the concentration scale where inhibition reaches its midpoint.

The structures appear in SMILES notation. Counter-ions that a name gives are not always drawn.

The results in this text go back to US7378436B2, “Compounds” (Pfizer Inc., priority 2003, dated 2008).

For assay [1], the target named is T1, human serotonin transporter (hSERT) (Homo sapiens, UniProt P31645).
T1 construct: expressed in transfected cells; host or cells: HEK-293
Briefly: Inhibition of 3H-serotonin uptake in HEK-293 cells expressing hSERT. The format is cell-based. Conditions: HEK-293 cells with hSERT; 3H-5HT 50 nM; 5 min incubation at 25° C.; read-out: SRI IC50. Here is the method: (§1) The compounds were tested for biological activity by their ability to inhibit the uptake of serotonin and/or noradrenaline by human serotonin and/or noradrenaline transporters as follows.
(§2) (i) Cell Culture • Human embryonic kidney cells (HEK-293) stably transfected with either the human serotonin transporter (hSERT), noradrenaline transporter (hNET) or dopamine transporter (hDAT) were cultured under standard cell culture techniques (cells were grown at 37° C. and 5% CO2in either Dulbecco's Modified Eagle's Medium (DMEM) culture media supplemented with 10% dialysed foetal calf serum (FCS), 2 mM L-glutamine and 250 μg/ml geneticin (hSERT and hNET cells) or DMEM-culture media supplemented with 5% FCS, 5% new-born calf serum, 2 mM L-glutamine and […] (hDAT cells)). Prior to assay, cells were harvested by dissociation using cell dissociation solution (Sigma) and centrifugation, and resuspended in standard assay buffer (see below) at a viable cell density of 750,000 cells/ml.
(§3) (i) Determination of Inhibitor Potency • All test compounds were dissolved in 100% DMSO at 4 mM and diluted down in 1% DMSO in water to give appropriate test concentrations. Assays were carried out in 96-well filter bottom plates. Cells expressing the appropriate human transporter protein (75,000 cells/assay well) were pre-incubated at 25° C. in standard assay buffer containing either test compound, a standard inhibitor (positive control) or compound vehicle (DMSO in water; final DMSO concentration was 0.1% in each assay well) for 5 minutes. Reactions were started by addition of either ^3H-serotonin, ^3H-noradrenaline or ^3H-dopamine substrates. All reactions were carried out at 25° C. in a shaking incubator. Incubation times were 5 minutes for the hSERT and hDAT assays and 15 minutes for the hNET assay. Reactions were terminated by addition of ice-cold wash buffer (see below), followed by filtration of the assay mixture using a vacuum manifold and rapid washing with icecold wash buffer. The quantity of ^3H-substrate incorporated into the cells was then quantified: Filtered/washed assay plates were dried at 45° C. for 1 hour, scintillation fluid added, and radioactivity measured by scintillation counting. Potency of test compounds was quantified as IC50 values (concentration of test compound required to inhibit the specific uptake of radiolabelled substrate into the cells by 50% relative to maximum (compound vehicle only) and minimum (complete inhibition by standard inhibitor) responses).
(§4) (iii) Standard Assay Buffer Composition: • Tris(hydroxymethyl)amino methane hydrochloride (26 mM) • NaCl (124 mM) • KCl (4.5 mM) • KH2PO4 (1.2 mM) • MgCl2.6H2O (1.3 mM) • Ascorbic acid (1.136 mM) • Glucose (5.55 mM) • pH 7.40 • CaCl2 (2.8 mM) • Pargyline (100 μM) • Note: The pH of the buffer was adjusted to 7.40 with 1 M NaOH before addition of CaCl2 and pargyline. • Wash Buffer Composition: • Tris(hydroxymethyl)methylamine (26 mM) • NaCl (124 mM) • KCl (4.5 mM) • KH2PO4 (1.2 mM) • MgCl2.6H2O (1.3 mM) • Ascorbic acid (1.136 mM) • pH 7.40 at 4° C. with 6M HCl
(§5) (iv) Summary of Assay Parameters

For assay [2], the target named is T2, human noradrenaline transporter (hNET) (Homo sapiens, UniProt P23975).
T2 construct: expressed in transfected cells; host or cells: HEK-293
Briefly: Inhibition of 3H-noradrenaline uptake in HEK-293 cells expressing hNET. The format is cell-based. The note with it: HEK-293 cells with hNET; 3H-noradrenaline 200 nM; 15 min incubation at 25° C.; read-out: NRI IC50. The procedure: as §1, §2, §3, §4, §5

T2 sequence (P23975 whole entry): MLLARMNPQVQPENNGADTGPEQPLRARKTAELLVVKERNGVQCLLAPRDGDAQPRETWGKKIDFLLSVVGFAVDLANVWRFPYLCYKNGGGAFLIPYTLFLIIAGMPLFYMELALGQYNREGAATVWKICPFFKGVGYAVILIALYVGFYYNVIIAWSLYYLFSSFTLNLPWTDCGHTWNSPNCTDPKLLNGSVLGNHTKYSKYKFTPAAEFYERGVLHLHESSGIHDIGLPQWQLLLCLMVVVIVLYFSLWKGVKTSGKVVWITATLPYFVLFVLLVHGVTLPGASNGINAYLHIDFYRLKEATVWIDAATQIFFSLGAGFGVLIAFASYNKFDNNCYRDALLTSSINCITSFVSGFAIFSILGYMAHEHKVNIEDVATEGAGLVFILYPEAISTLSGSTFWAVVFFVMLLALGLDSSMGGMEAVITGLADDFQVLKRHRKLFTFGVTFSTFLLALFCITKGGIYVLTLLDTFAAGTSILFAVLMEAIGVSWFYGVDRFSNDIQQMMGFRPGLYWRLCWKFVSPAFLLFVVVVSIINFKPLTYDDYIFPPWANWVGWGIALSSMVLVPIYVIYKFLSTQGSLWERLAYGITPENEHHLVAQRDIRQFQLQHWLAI
T1 sequence (P31645 whole entry): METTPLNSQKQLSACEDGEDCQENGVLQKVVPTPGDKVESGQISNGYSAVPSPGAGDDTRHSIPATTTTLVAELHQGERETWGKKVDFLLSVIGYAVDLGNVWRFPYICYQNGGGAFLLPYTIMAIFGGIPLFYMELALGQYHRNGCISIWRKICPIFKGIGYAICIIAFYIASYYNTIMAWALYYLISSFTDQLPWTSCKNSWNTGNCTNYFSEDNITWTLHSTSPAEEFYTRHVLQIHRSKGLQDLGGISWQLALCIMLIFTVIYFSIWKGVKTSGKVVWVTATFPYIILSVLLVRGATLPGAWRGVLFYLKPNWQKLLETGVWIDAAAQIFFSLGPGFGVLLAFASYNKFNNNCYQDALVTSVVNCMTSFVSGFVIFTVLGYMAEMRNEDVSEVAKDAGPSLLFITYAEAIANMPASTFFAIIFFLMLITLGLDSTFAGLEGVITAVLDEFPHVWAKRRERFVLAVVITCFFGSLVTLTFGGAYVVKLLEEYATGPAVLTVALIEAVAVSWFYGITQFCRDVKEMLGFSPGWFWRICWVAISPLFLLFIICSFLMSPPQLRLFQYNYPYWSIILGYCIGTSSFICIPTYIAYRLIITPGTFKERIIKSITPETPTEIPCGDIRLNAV

In the case of `CC(C)CN(C(=O)c1cccc(Cl)c1Cl)[C@H]1CCNC1` [Example 1, 2,3-Dichloro-N-isobutyl-N-[(3S)-pyrrolidin-3-yl]benzamide citrate], the IC50 in assay [1] turned out to be 13.9 nM; in assay [2] it was 14.1 nM.

Consider `CC(C)CN(C(=O)c1ccc(Cl)cc1Cl)[C@H]1CCNC1` [Example 2, 2,4-Dichloro-N-isobutyl-N-[(3S)-pyrrolidin-3-yl]benzamide hydrochloride], for which the half-inhibitory concentration (IC50) stood at 9.7 nM in assay [1] and 28.5 nM in assay [2].

As for `Cc1cccc(C(=O)N(CC(C)C)[C@H]2CCNC2)c1Cl` [Example 3, 2-Chloro-3-methyl-N-isobutyl-N-[(3S)-pyrrolidin-3-yl]benzamide], the IC50 in assay [1] worked out at 22.3 nM; in assay [2], 21.2 nM.

For the compound `Cc1c(F)cccc1C(=O)N(CC(C)C)[C@H]1CCNC1` [Example 4, 3-Fluoro-2-methyl-N-isobutyl-N-[(3S)-pyrrolidin-3-yl]benzamide], the IC50 in assay [1] amounted to 18.8 nM; in assay [2], 45.9 nM.

Take `COc1cccc(C(=O)N(CC(C)C)[C@H]2CCNC2)c1C` [Example 5, 3-Methoxy-2-methyl-N-isobutyl-N-[(3S)-pyrrolidin-3-yl]benzamide]: the values for the IC50 in assay [1] and in assay [2] were 10.9 nM and 32.9 nM, respectively.

For `CC(C)CN(C(=O)c1cccc(Cl)c1)[C@H]1CCNC1` [Example 6, 3-Chloro-N-isobutyl-N-[(3S)-pyrrolidin-3-yl]benzamide], the IC50 worked out at 45.2 nM in assay [1] and 56.9 nM in assay [2].

In the case of `CC(C)CN(C(=O)c1ccc(Cl)cc1)[C@H]1CCNC1` [Example 7, 4-Chloro-N-isobutyl-N-[(3S)-pyrrolidin-3-yl]benzamide], the IC50 in assay [1] is 5.7 nM; in assay [2], 55.4 nM.

Take `CC(C)CN(C(=O)c1ccc(Cl)c(Cl)c1)[C@H]1CCNC1` [Example 8, 3,4-Dichloro-N-isobutyl-N-[(3S)-pyrrolidin-3-yl]benzamide]: the 50% inhibitory concentration (IC50) in assay [1] was determined as 7.5 nM; in assay [2], 16.7 nM.

Turning to `O=C(c1ccccc1)N(Cc1ccc2ccccc2c1)[C@H]1CCNC1` [Example 9, N-(2-Naphthylmethyl)-N-[(3S)-pyrrolidin-3-yl]benzamide hydrochloride], the results for the IC50 in assay [1] and in assay [2] were 5.7 nM and 14 nM, respectively.

Regarding `O=C(c1ccccc1)N(Cc1ccc2ccccc2c1)[C@@H]1CCNC1` [Example 10, N-(2-Naphthylmethyl)-N-[(3R)-pyrrolidin-3-yl]benzamide hydrochloride], the results for the half-inhibitory concentration (IC50) in assay [1] and in assay [2] were 7.6 nM and 7.7 nM, respectively.

Regarding `CC(C)CN(C(=O)c1ccc2ccccc2c1)[C@H]1CCNC1` [Example 11, N-Isobutyl-N-[(3S)-pyrrolidin-3-yl]-2-naphthamide hydrochloride], the values for the IC50 in assay [1] and in assay [2] were 3.2 nM and 17 nM, respectively.

`CCCCN(C(=O)c1cccc2ccccc12)[C@H]1CCNC1` [Example 12, N-Butyl-N-[(3S)-pyrrolidin-3-yl]-1-naphthamide hydrochloride]: the 50% inhibitory concentration (IC50) came to 21.5 nM in assay [1] and 26.3 nM in assay [2].

Turning to `O=C(c1ccc(Cl)cc1)N(Cc1ccc(Cl)c(Cl)c1)[C@@H]1CCNC1` [Example 13, 4-Chloro-N-(3,4-dichlorobenzyl)-N-[(3R)-pyrrolidin-3-yl]benzamide hydrochloride], the 50% inhibitory concentration (IC50) in assay [1] is 8.8 nM; in assay [2], 3.1 nM.

In the case of `O=C(c1ccc(Cl)cc1)N(Cc1cccc(Cl)c1Cl)[C@@H]1CCNC1` [Example 14, 4-Chloro-N-(2,3-dichlorobenzyl)-N-[(3R)-pyrrolidin-3-yl]benzamide hydrochloride], the IC50 in assay [1] came to 43 nM; in assay [2], 57.1 nM.

As to `CC(C)CN(C(=O)c1cc(F)c(Cl)cc1Cl)[C@H]1CCNC1` [Example 15, 2,4-Dichloro-5-fluoro-N-isobutyl-N-[(3S)-pyrrolidin-3-yl]benzamide hydrochloride], the IC50 in assay [1] turned out to be 17.5 nM; in assay [2], 71.6 nM.
